{"source": "patent US20170224756A1", "about": "“Antioxidants Against Oxidative Stress During a Stressor Event” (MERIAL INC., priority 2016, published 2017)", "origin": "cited, not measured here", "key": {"oxidative stress": {"tested_on": "oxidative stress", "conditions": "heat-stressed quail"}, "gastric lesions": {"tested_on": "gastric lesions", "conditions": "indomethacin in rats"}, "endothelial dysfunction": {"tested_on": "endothelial dysfunction", "conditions": "locally administered; human forearms after typhoid vaccination"}}, "data": [{"compound": "epigallocatechin-3-gallate [EGCG]", "values": [{"measurement": "heat stress induced oxidative stress", "setting": "oxidative stress", "result": "alleviates"}]}, {"compound": "[Se]", "note": "[Se/DMSO, selenium]", "values": [{"measurement": "enzymatic antioxidants superoxide dismutase, catalase and glutathione peroxidase", "setting": "gastric lesions", "result": "increased"}, {"measurement": "gastric lesions", "setting": "gastric lesions", "result": "significantly reduced"}]}, {"compound": "O=C1O[C@H]([C@@H](O)CO)C(O)=C1O", "note": "[ascorbic acid]", "values": [{"measurement": "endothelial dysfunction, reduced vascular nitric oxide bioavailability and increased oxidative stress", "setting": "endothelial dysfunction", "result": "partially reversible"}]}]}
